Where two headings read alike, the source gives them in different places.

In the experiment the target is Thermoanaerobacterium saccharolyticum glucose isomerase (ATCC 49915), wild-type, SEQ ID NO.: 2 (Thermoanaerobacterium saccharolyticum, UniProt P30435). As to conditions: pH 6.5, 20 mM sodium phosphate, 250 μM CoCl2, 5 mM MgCl2, 10 minutes.
Chain of Thermoanaerobacterium saccharolyticum glucose isomerase (ATCC 49915), wild-type, SEQ ID NO.: 2 (P30435 whole entry R81A): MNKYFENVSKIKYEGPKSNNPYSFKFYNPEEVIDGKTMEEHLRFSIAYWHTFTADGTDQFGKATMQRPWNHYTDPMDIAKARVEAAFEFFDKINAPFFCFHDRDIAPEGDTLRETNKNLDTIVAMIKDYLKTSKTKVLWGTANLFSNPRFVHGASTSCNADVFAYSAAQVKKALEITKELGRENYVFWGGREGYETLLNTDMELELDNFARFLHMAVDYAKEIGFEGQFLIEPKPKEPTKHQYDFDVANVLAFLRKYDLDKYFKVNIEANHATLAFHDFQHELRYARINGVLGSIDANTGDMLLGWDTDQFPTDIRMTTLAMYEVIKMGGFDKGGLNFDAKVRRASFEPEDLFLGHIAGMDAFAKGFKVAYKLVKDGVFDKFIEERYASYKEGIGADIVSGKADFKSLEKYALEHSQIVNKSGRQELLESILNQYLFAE

Method: The isolation and purification of wild-type glucose isomerase were based on Lee et al., (Journal of General Microbiology, 139:1227-1234, 1993) with modifications. pGEMT-TS transformed E. coli HB101 cells were incubated on 1% MacConkey agar plate containing 1% xylose and 50 mg/L ampicillin at 37° C. for 36 hours. A single colony from the plate was inoculated and cultivated in 5 mL LB supplemented with 50 mg/L ampicillin for 16 hours. The bacterial cells were pelleted and resuspended in 1 ml 20 mM phosphate buffer (pH 6.5), and CoCl2 and MgCl2 were added to final concentration of 250 μM and 5 mM, respectively. The cells were disrupted by using ultrasonication and centrifuged at 17,800 g for 15 minutes at 10° C. to collect the supernatant as crude glucose isomerase. The crude enzyme was heated at 80° C. for 10 minutes and centrifuged again at 17,800 g for 15 minutes at 10° C. to remove the precipitation.
Ninety μl of the stock solution was mixed with 10 μl of the glucose isomerase prepared as described in Example 9, incubated at 80° C. for 10 minutes and quenched on ice immediately. The fructose formed was measured by the cysteine-carbazole method (Dische et al., J. Biol. Chem, 192:583-587, 1951; and Nakamura, Agr. Biol. Chem. 32:701-706, 1968). The protein concentration was determined using Coomassie® Plus Protein Assay Reagent Kit (Pierce, USA) and SDD-PAGE, with BSA as the standard.

In the case of `OC[C@H]1OC(O)[C@H](O)[C@@H](O)[C@@H]1O` (stereo partly drawn) [D-glucose], the Kcat is, setting by setting: (65° C.) 344.5 min⁻¹; (80° C.) 881.1 min⁻¹. The Kcat/Km is, setting by setting: (65° C.) 2.50 mM⁻¹ min⁻¹; (80° C.) 5.90 mM⁻¹ min⁻¹.
